Laboratory results taken from patent publication US8779141B2, “Viral inhibitors” (Gilead Sciences, Inc., priority 2002, dated 2014).
≈ marks a conversion by molar mass, not a printed value. Read-outs that look alike come from different tables or passages of the source.

Experiments:
BVDV-1 (strain PE515) = experiment: Anti-BVDV assay, virus-induced cytopathic effect in MDBK cells (MTS); assay type: cell-based, Bovine Viral Diarrhea Virus
Experimental: (§1) Madin-Darbey Bovine Kidney (MDBK) cells were maintained in Dulbecco's modified Eagle medium (DMEM) supplemented with BVDV-free 5% fetal calf serum (DMEME-FCS) at 37° C. in a humidified, 5% CO2 atmosphere. BVDV-1 (strain PE515) was used to assess the antiviral activity in MDBK cells. Vero cells were maintained in the same way as MDBK cells. Vero cells were infected with Coxsackie B3 virus (strain Nancy).
Ninety-six-well cell culture plates were seeded with MDBK cells in DMEM-FCS so that cells reached 24 hr later confluency. Then medium was removed and serial 5-fold dilutions of the test compounds were added in a total volume of 100 ul, after which the virus inoculum (100 ul) was added to each well. […] Uninfected cells and cells receiving virus without compound were included in each assay plate. After 5 days, medium was removed and 90 μl of DMEM-FCS and 10 ul of MTS/PMS solution (Promega) was added to each well. Following a 2 hr incubation period at 37° C. the optical density of the wells was read at 498 nm in a microplate reader.

[1] = test system: Coxsackie B3 virus (strain Nancy); experiment: Anti-coxsackie virus assay, cytopathic effect in Vero cells (MTS); assay type: cell-based; conditions: Enterovirus B, Table 13, reduction of virus (CBV-3 Nancy strain)-induced cytopathic effect in Vero cells by 50%
Experimental: as §1
(§2) Ninety-six-well cell culture plates were seeded with Vero cells in DMEM medium containing 10 fetal calf serum (FCS) so that cells reached confluency 24-48 hr later. Medium was then removed and serial 5-fold dilutions of the test compounds were added in a total volume of 100 ul, after which the virus inoculum (100 μl) was added to each well. […] Uninfected cells and cells receiving virus without compound were included in each asay plate. After 5 days, the medium was removed and 90 μl of DMEM-FCS and 10 μl of MTS/PMS solution (Promega) was added to each well. Following a 2 hr incubation period at 37° C., the optical density of the wells was read at 498 nm in a microplate reader. The 50% effective concentration (EC50) value was defined as the concentration of compound that protects 50% of the cell monolayer from virus-induced cytopathic effect.

Vero cells = experiment: Metabolism of confluent Vero cells (MTS); assay type: cell-based; conditions: Table 13; reduction of metabolism of confluent Vero cells by 50%, MTS method
Experimental: as §1, §2

[2] = Cytostatic effect on exponentially growing MDBK cells (MTS); assay type: cell-based, Bovine; conditions: bovine; Table 9; reduction of growth of exponentially growing MDBK cells by 50%; mean of 2-5 determinations
Experimental: (§3) Madin-Darbey Bovine Kidney (MDBK) cells were maintained in Dulbecco's modified Eagle medium (DMEM) supplemented with BVDV-free 5% fetal calf serum ([…]) at 37° C. in a humidified, 5% CO2 atmosphere. […] Vero cells were maintained in the same way as MDBK cells. […] The effect of the drugs on exponentially growing MDBK cells was assessed as follows. Cells were seeded at a density of 5000 cell/well in 96 well plates in MEM medium (Gibco) supplemented with 10% fetal calf serum, 2 mM L-glutamine (Life Technologies) and bicarbonate (Life Technologies). […] Cultures were then again further incubated for 3 days after which the effect on cell growth was quantified by means of the MTS method (Promega).

[3] = test system: HCV replicon in Huh-5-2 cells; experiment: Anti-HCV replicon assay, luciferase activity in Huh-5-2 cells; assay type: cell-based; conditions: Hepatitis C virus, Table 11, inhibition of luciferase activity in the replicon system by 50%
Experimental: (§4) Cells were seeded at a density of 7000 cells per well in 96 well View Plate™ (Packard) in medium containing the same components as described above, except for G418. Cells were allowed to adhere and proliferate for 24 hr. At that time, culture medium was removed and serial dilutions of the test compounds were added in culture medium lacking G418. Interferon alfa 2a (500 IU) was included as a positive control. Plates were further incubated at 37° C. and 5% CO2 for 72 hours. Replication of the HCV replicon in Huh-5 cells results in luciferase activity in the cells. Luciferase activity is measured by adding 50 μl of 1× Glo-lysis buffer (Promega) for 15 minutes followed by 50 ul of the Steady-Glo Luciferase assay reagent (Promega). Luciferase activity is measured with a luminometer and the signal in each individual well is expressed as a percentage of the untreated cultures. […] Instead the density of the culture is measured by means of the MTS method (Promega).

[4] = Proliferation of exponentially growing Huh-5-2 cells (MTS); assay type: cell-based; conditions: human, exponentially growing Huh-5-2 cells (HCV replicon cell line); Table 11; inhibition of proliferation of exponentially growing Huh-5-2 cells by 50%
Experimental: as §4

MDBK cells = experiment: Cytostatic effect on exponentially growing MDBK cells (MTS); assay type: cell-based, Bovine; conditions: for MTC: Table 10, mean toxic concentration, reduces growth of exponentially growing MDBK cells by 50%
Experimental: as §3

[5] = Bovine viral diarrhea virus isolates and strains, Table 9, reduction of virus induced cytopathic effect in MDBK cells by 50%, BVDV strain PE515, mean of 2-5 determinations, read-out: EC50
[6] = Bovine viral diarrhea virus isolates and strains, Table 10, reduction of virus induced cytopathic effect in MDBK cells by 50%, read-out: EC50

SMILES | EC50 (BVDV-1 (strain PE515); [5]) [µg/mL] | EC50 [1] [µg/mL] | TC50 (Vero cells) [µg/mL] | CC50 at 3 days [2] [µg/mL] | further results
Fc1cccc(F)c1-c1nc2ccn(Cc3ccc(Cl)c(Cl)c3)cc-2n1 [GPC-10, 5-[(3,4-Dichlorophenyl)methyl]-2-(2,6-difluorophenyl)-5H-imidazo[4,5-c]pyridine] | 0.064 (≈ 0.164 µM) | 1.81 (≈ 4.64 µM) | 59 (≈ 151 µM) | 4 (≈ 10.3 µM) | –
Fc1cccc(-c2nc3ccn(Cc4ccc(F)cc4F)cc-3n2)c1 [GPC-11, 5-[(2,4-Difluorophenyl)methyl]-2-(3-fluorophenyl)-5H-imidazo[4,5-c]pyridine] | 0.56 (≈ 1.65 µM) | 4.76 (≈ 14 µM) | >100 | > 100 | –
Fc1ccc(Cn2ccc3nc(-c4c(F)ccc(F)c4F)nc-3c2)c(F)c1 [GPC-12, 5-[(2,4-Difluorophenyl)methyl]-2-(2,3,6-trifluorophenyl)-5H-imidazo[4,5-c]pyridine] | – | 3.6 (≈ 9.59 µM) | >100 | – | –
CC(C)(C)c1ccc(Cn2ccc3nc(-c4ccccc4)nc-3c2)cc1 [GPJN-16, 5-[[4-(1,1-Dimethylethyl)phenyl]methyl]-2-phenyl-5H-imidazo[4,5-c]pyridine] | 0.246 (≈ 0.72 µM) | – | – | 8.1 (≈ 23.7 µM) | EC50 [3]: 1 µg/mL (≈ 2.93 µM); CC50 at 72 hours [4]: 3 µg/mL (≈ 8.79 µM)
c1ccc(-c2ccc(Cn3ccc4nc(-c5ccccc5)nc-4c3)cc2)cc1 [GPJN-32, 5-([1,1′-Biphenyl]-4-ylmethyl)-2-phenyl-5H-imidazo[4,5-c]pyridine] | 0.027 (≈ 0.0747 µM) | 6.5 (≈ 18 µM) | 69 (≈ 191 µM) | 20 (≈ 55.3 µM) | –
c1ccc(-c2nc3ccn(Cc4cccc5ccccc45)cc-3n2)cc1 [GPJN-36, 5-(1-Naphthalenylmethyl)-2-phenyl-5H-imidazo[4,5-c]pyridine] | – | – | – | – | EC50 (BVDV-1 (strain PE515); Table 9, reduction of virus induced cytopathic effect in MDBK cells by 50%, BVDV strain PE515, mean of 2-5 determinations): 0.019 µg/mL (≈ 0.0566 µM); CC50 (MDBK cells; Table 9, reduction of growth of exponentially growing MDBK cells by 50%, mean of 2-5 determinations): 24 µg/mL (≈ 71.6 µM)
Fc1ccc(Cn2ccc3nc(-c4c(F)cccc4F)nc-3c2)c(F)c1 [GPJN-40, 2-(2,6-Difluorophenyl)-5-[(2,4-difluorophenyl)methyl]-5H-imidazo[4,5-c]pyridine] | 0.25 (≈ 0.7 µM) | 8.95 (≈ 25 µM) | >100 | > 100 | –
Fc1cccc(-c2nc3ccn(Cc4ccc(Br)cc4)cc-3n2)c1 [GPJN-50, 5-[(4-Bromophenyl)methyl]-2-(3-fluorophenyl)-5H-imidazo[4,5-c]pyridine] | 0.021 (≈ 0.0549 µM) | 8.47 (≈ 22.2 µM) | >100 | > 100 | –
Cc1cccc(-c2nc3ccn(Cc4ccc(Br)cc4)cc-3n2)c1 [GPJN-60, 5-[(4-Bromophenyl)methyl]-2-(3-methylphenyl)-5H-imidazo[4,5-c]pyridine] | – | 6.1 (≈ 16.1 µM) | >100 | > 77 | EC50 (BVDV-1 (strain PE515); Bovine viral diarrhea virus isolates and strains, MDBK): 0.015 µg/mL (≈ 0.0397 µM)
Brc1ccc(Cn2ccc3nc(-c4cccc5ccccc45)nc-3c2)cc1 [GPJN-62, 5-[(4-Bromophenyl)methyl]-2-(1-naphthalenyl)-5H-imidazo[4,5-c]pyridine] | 0.12 (≈ 0.29 µM) | – | – | 9.4 (≈ 22.7 µM) | EC50 [3]: < 0.62 µg/mL; CC50 at 72 hours [4]: 6 µg/mL (≈ 14.5 µM)
COc1cccc(-c2nc3ccn(Cc4ccc(Br)cc4)cc-3n2)c1 [GPJN-64, 5-[(4-Bromophenyl)methyl]-2-(3-methoxyphenyl)-5H-imidazo[4,5-c]pyridine] | 0.026 (≈ 0.0659 µM) | 12 (≈ 30.4 µM) | >42 | > 100 | –
Ic1ccc(Cn2ccc3nc(-c4ccccc4)nc-3c2)cc1 [GPJN-68, 5-[(4-Iodophenyl)methyl]-2-phenyl-5H-imidazo[4,5-c]pyridine] | 0.026 (≈ 0.0632 µM) | – | – | 17 (≈ 41.3 µM) | –
c1ccc(OCCn2ccc3nc(-c4ccccc4)nc-3c2)cc1 [GPJN-73, 5-(2-Phenoxyethyl)-2-phenyl-5H-imidazo[4,5-c]pyridine] | 0.017 (≈ 0.0539 µM) | – | – | > 100 | –
C(=Cc1ccccc1)Cn1ccc2nc(-c3ccccc3)nc-2c1 [GPJN-75, 2-Phenyl-5-(3-phenyl-2-propenyl)-5H-imidazo[4,5-c]pyridine] | 0.018 (≈ 0.0578 µM) | – | – | 31.7 (≈ 102 µM) | –
Brc1cccc(-c2nc3ccn(Cc4ccc(I)cc4)cc-3n2)c1 [GPJN-79, 2-(3-Bromophenyl)-5-[(4-iodophenyl)methyl]-5H-imidazo[4,5-c]pyridine] | 0.083 (≈ 0.169 µM) | – | – | > 100 | –
Clc1ccc(Cn2ccc3nc(-c4cccc(Br)c4)nc-3c2)cc1 [GPJN-80, 2-(3-Bromophenyl)-5-[(4-chlorophenyl)methyl]-5H-imidazo[4,5-c]pyridine] | 0.18 (≈ 0.451 µM) | – | – | > 100 | –
Brc1ccc(Cn2ccc3nc(CSc4ccccc4)nc-3c2)cc1 [GPJN-83, 5-[(4-Bromophenyl)methyl]-2-[(phenylthio)methyl]-5H-imidazo[4,5-c]pyridine] | – | – | – | – | EC50 [3]: < 0.62 µg/mL; CC50 at 72 hours [4]: 8 µg/mL (≈ 19.5 µM)
FC(F)(F)c1cccc(-c2nc3ccn(Cc4ccc(Br)cc4)cc-3n2)c1 [GPJN-87, 5-[(4-Bromophenyl)methyl]-2-[3-(trifluoromethyl)phenyl]-5H-imidazo[4,5-c]pyridine] | – | – | – | – | EC50 [3]: < 0.62 µg/mL; CC50 at 72 hours [4]: 20 µg/mL (≈ 46.3 µM)
Clc1c2nc(-c3ccccc3)nc-2ccn1Cc1ccc(Br)cc1 [GPJN-96, 5-[(4-Bromophenyl)methyl]-4-chloro-2-phenyl-5H-imidazo[4,5-c]pyridine] | – | – | – | – | EC50 [3]: 1 µg/mL (≈ 2.51 µM); CC50 at 72 hours [4]: 4 µg/mL (≈ 10 µM)
Brc1cccc(-c2nc3ccn(CCOc4ccccc4)cc-3n2)c1 [GPJN-100, 2-(3-Bromophenyl)-5-(2-phenoxyethyl)-5H-imidazo[4,5-c]pyridine] | – | – | – | – | EC50 (BVDV-1 (strain PE515); [6]): 0.088 µg/mL (≈ 0.223 µM); MTC (MDBK cells): 20 µg/mL
Clc1cn(Cc2ccc(Br)cc2)cc2nc(-c3ccccc3)nc1-2 [GPJN-103, 5-[(4-Bromophenyl)methyl]-7-chloro-2-phenyl-5H-imidazo[4,5-c]pyridine] | – | – | – | – | EC50 (BVDV-1 (strain PE515); [6]): 0.061 µg/mL (≈ 0.153 µM); MTC (MDBK cells): 20 µg/mL
Cc1cn(Cc2ccc(Br)cc2)cc2nc(-c3ccccc3)nc1-2 [GPJN-104, 5-[(4-Bromophenyl)methyl]-7-methyl-2-phenyl-5H-imidazo[4,5-c]pyridine] | – | – | – | – | EC50 (BVDV-1 (strain PE515); [6]): 0.27 µg/mL (≈ 0.714 µM); MTC (MDBK cells): 20 µg/mL
c1ccc(-c2ccc(Cn3ccc4nc(-c5cccc6ccccc56)nc-4c3)cc2)cc1 [GPJN-115, 5-([1,1′-Biphenyl]-4-ylmethyl)-2-(1-naphthalenyl)-5H-imidazo[4,5-c]pyridine] | – | – | – | – | EC50 (BVDV-1 (strain PE515); [6]): 0.24 µg/mL (≈ 0.583 µM); MTC (MDBK cells): 4 µg/mL
